Legend:
[1] = test system: polychromatic erythrocytes; assay: Micronucleus frequencies (MNPCEs) as genotoxicity endpoint; type: in vivo, Sprague Dawley male rats; conditions: 30 mg/kg, seven days
Protocol: In addition to sampling for biochemical and haematological analysis, one drop of blood samples was obtained from the animals for evaluating micronucleus frequencies as genotoxicity endpoint at the end of the experiments. Three different smears of each rat were prepared using pre-coded and cold slides, then the slides air-dried at room temperature, and fixed in ethanol for 10 min, and stained with Giemsa. […] The incidence of MN-PCEs was determined by scoring a total of 3000 PCE per animal and results were expressed as % MN [12].

HepG2 cells [2] = assay: Cellular ROS assay (DCFDA); type: cell-based, human; conditions: 10 μM, one day
Protocol: HepG2 cells were seeded into a 6-well plate at 400,000 cells per well. After treatment with the compounds at desired concentration and time, TMRE (ab113852, abcam), Autophagy (ab139484, abcam), ROS (ab113851, abcam), and Lipid peroxidation (ab243377, abcam) assay were performed according to manufacturer's instructions. Fluorescence images were taken using ZOE™ Fluorescent Cell Imager (Biorad) and ROI of fluorescence intensity was measured and calculated by Image J. For microplate reader florescence assay, 40,000 of HepG2 cells were seeded into a 96-well plate and triplicated. GFP (Ex480 nm, Em530 nm) and RFP (Ex549 nm, Em574 nm) were measured using a microplate reader (Hidex Sense Meta Plus).

GPX4 = assay: Western blot, GPX4; type: cell-based, human; conditions: compared to the control
Protocol: (§1) HepG2 cells were seeded into a 6-well plate at 400,000 cells per well. After treatment with 10 μM of JNK-IN-5A and its derivatives for two days, lysates were harvested with CelLytic M (C2978, Sigma-Aldrich). 20 μg lysate was prepared with 2× Laemmli Sample Buffer (1610737, Biorad). SDS PAGE were performed using Mini-PROTEAN® TGX™ Precast Gels (Bio-Rad) and transferred using Trans-Blot® Turbo™ Transfer System (Bio-Rad). Primary antibody, PARP (95425, Cell signalling), Caspase 3 (ab32042, abcam), Bcl-2 (ab182858), STAT1 (HPA000982, Merk), PKL (06653, Sigma), PKM (4053S, Cell signalling), GAPDH (ab8245, abcam), P53 (ab32389, abcam), p21 (ab109199, abcam), p-S349 p62 (ab211324, abcam), p62 (ab109012, abcam), c-Myc (ab32072, abcam), GPX4 (ab125066, abcam), MMP9 (MA5-32705, Invitrogen), β-actin (ab8227, abcam), and α-tubulin (ab7291, abcam) were blotted overnight and Goat Anti-Rabbit HRP (ab205718) and goat anti-mouse IgG-HRP (sc2005, Santa Cruz Biotechnology, Inc.) were blotted for secondary antibody for one hour. ImageQuantTMLAS 500 (29-0050-63, GE) was used to detect protein bands.

HepG2 cells [3] = assay: LDH cytotoxicity assay, time dependent; type: cell-based, human; conditions: 10 μM, up to 4 days
Protocol: HepG2 cells were maintained and used with RPMI 1640 (R2405, Sigma-Aldrich) supplemented with 10% fetal bovine serum (F7524, Sigma-Aldrich), 1% P/S (P4333, Sigma-Aldrich). 20,000 cells per well of HepG2 cells were seeded into a 96-well plate and triplicated for MTT assay and LDH assay. Cell viability was measured by MTT assay (M6494, ThermoFisher) and cytotoxicity was measured by LDH assay kit (ab65393, abcam) by following manufacturer's instructions. Optical density (O.D) was numerated using a microplate reader (Hidex Sense Meta Plus).

HepG2 cells [4] = assay: RNA sequencing, GSEA and PROGENy pathway analysis; type: cell-based, human
Protocol: RNA samples for RNA sequencing were extracted with RNeasy Plus Mini Kit (74134, QIAGEN). RIN score of total RNA samples was measured using RNA 6000 Nano kit (5067-1511, Agilent). 2100 Bioanalyzer Instrument (G2939BA, Agilent) was used for RIN score test using electrophoresis. Samples with a […] were submitted to SZA Omics, Istanbul for RNA sequencing analysis.
The quality, quantity, and RNA integrity number (RIN) of the samples were assessed with NanoDrop (Thermo Fisher, USA), and Bioanalyzer (2100, Agilent Technology, USA). For the RNA samples, the ratio of absorbance at 260 and 280 nm (A260/280) of […], A260/230 of 2.0-2.2, and RIN>8.0 are acceptable. All samples passed the quality control.
The Illumina Stranded Total RNA Prep, Ligation with Ribo-Zero Plus kit was used for the construction of NGS libraries from the samples with acceptable quality parameters. In short, RNA samples were sequenced with 2×100 paired-end reads by the NovaSeq 6000 system. Raw sequencing data (.bcl) was demultiplexed and converted to FASTQ files with DRAGEN Software (v3.9.5). The data was delivered in FASTQ format using Illumina 1.8 quality scores.
The quality of FASTQ files was assessed by FastQC (v0.11.9) software to ensure the quality of every sequenced sample. Kallisto (v0.48.0)16 was used to quantify the count and transcripts per million (TPM) values of transcripts based on the Homo sapiens reference cDNA (version GRCh38, Ensembl release 110). The transcript read counts and TPM values were assembled to gene level using the R package tximport (v1.28.0), with only protein-coding transcripts and genes included. The lowly expressed genes with an average count below 5 were filtered out, resulting in a total of 14,592 genes for the downstream analysis.
Differential expression analysis was conducted using the R package DESeq2 (v1.40.2) followed by the Benjamini-Hochberg procedure to correct p-values. […]

p62 (SQSTM1) = assay: Western blot, p62 and p-S349 p62; type: cell-based, human; conditions: 10 μM, 2 days
Protocol: as §1

## N#Cc1c(NC(=O)c2cccc3ccccc23)sc2c1CCCC2 [JNK-IN-5A, N-(3-cyano-4,5,6,7-tetrahydrobenzo[b]thiophen-2-yl)-1-naphthamide]
[1]
  genotoxic potential: non-genotoxic
[1]; p>0.05
  frequencies of MNPCEs compared to Ctrl animals: not statistically different

## N#Cc1c(NC(=O)c2cccc3ccccc23)sc2c1CCN(CC(=O)Nc1cccc(Br)c1)C2 [PKL-B171]
HepG2 cells [2]
  cellular ROS: significantly increased
GPX4
  GPX4 expression levels: 0.88 times
HepG2 cells [3]
  necrotic cell death (LDH): pronounced late necrotic cell death from day 3 to 4
HepG2 cells [4]
  p53 pathways activity (PROGENy): significantly activated

## COc1ccc(C(=O)Nc2sc3c(c2C#N)CCCCC3)cc1OC [PKL-A135, N-(3-cyano-5,6,7,8-tetrahydro-4H-cyclohepta[b]thiophen-2-yl)-3,4-dimethoxy-benzamide]
p62 (SQSTM1)
  levels of p62 and P-S349 p62: significantly elevated
GPX4
  GPX4 expression levels: 0.58 times
HepG2 cells [3]
  necrotic cell death (LDH): pronounced necrotic cell death from day 1 to day 4
HepG2 cells [4]
  inhibition of cell cycle-related pathways (E2F targets, G2M checkpoint), GSEA: most potent inhibitor
  p53 pathways activity (PROGENy): significantly activated
